The values that follow come from US11274125B2, “Amyloid-beta-binding peptides and the use thereof for the treatment and diagnosis of Alzheimer's disease” (FORSCHUNGSZENTRUM JUELICH GMBH, priority 2013, dated 2022).

Entries after “also recorded” stand apart in the source; their conditions may differ. Where no end group is shown, it is not given here. [ ]: non-standard residue; d: D form.

For assay [1], the system named is TgSwDI mouse model. The experiment in a line: Object recognition test (ORT). In kind it is in vivo. Conditions: TgSwDI mice. Here is the method: FIG. 1: Here, the result of the so-called “object recognition test” (ORT) is shown. Animals treated with D3D3 (amidated) (details in Table 2) and animals treated with placebo were placed individually and separately from each other in a box in which two objects were located. After the animals had time to explore both objects, the animals were removed from the box again and not placed back in there until 24 hours later. Before that, however, one object was replaced with a new object different therefrom. Animals having memory now preferably explore the new object. Animals having no memory of having stayed in the box 24 hours earlier spend the same amount of time exploring the old object and the new object. The time that the animal spends with the old object (white bars) and the new object (black bars) is measured in seconds. It is clearly apparent that the animals treated with the placebo spend the same amount of time with the new and the old objects. […] Thus, only the animals treated with D3D3 show a functioning memory in the test.
FIG. 5: Here, the result of the so-called “object recognition test” (ORT) is shown. Animals treated with RD2D3 (amidated) (details in Table 2) and animals treated with placebo were placed individually and separately from each other in a box in which two objects were located. After the animals had time to explore both objects, the animals were removed from the box again and not placed back in there until 24 hours later. Before that, however, one object was replaced with a new object different therefrom. Animals having memory now preferably explore the new object. Animals having no memory of having stayed in the box 24 hours earlier spend the same amount of time exploring the old object and the new object. The time that the animal spends with the old object (black bars) and the new object (white bars) is measured in seconds. It is clearly apparent that the animals treated with the placebo spent the same amount of time with the new and the old objects.

For assay [2], the system named is TBA 2.1 mice. The experiment in a line: SHIRPA test. In kind it is in vivo, mouse. Conditions: 0.1 mg/day i.p. for 4 weeks (micropump), before vs after treatment, FIG. 3, listed as D3D3 (amidated). Here is the method: FIG. 3: The SHIRPA test is a test where a number of characteristics, including reflexes, are tested. Each characteristic is assessed separately from the others, and points are awarded in each case. The higher the number of points, the more progressed the phenotype, which is to say the neurological damage, is. The SHIRPA test was measured prior to (black bars) and after (white bards) the treatment (treatment details are provided in Table 2). […] D3D3 thus acts more efficiently than D3.

Assay [3] deals with TBA 2.1 mice. Nature of the assay: Rotarod test. In kind it is in vivo, mouse. The settings on record: 0.1 mg/day i.p. for 4 weeks (micropump), before vs after treatment. The source says: FIG. 2: The so-called “rotarod” test is used to measure how long an animal is able to balance on a rotating rod before falling off. This allows the animal's neuromotor performance to be measured. The longer the animal is able to balance, the less strongly the motor neurons are affected by the phenotype of neurodegeneration. The difference between before and after treatment is plotted in seconds. […] As expected, the degeneration has thus progressed. […] Thus, the treatment slowed, or even stopped, the neurodegeneration in both instances.
A general note: In the rotarod test animals must keep their balance on a rotating rod.

The subject of assay [4] is TgSwDI mouse model. Nature of the assay: Morris water maze. The assay is classed as in vivo. The settings on record: TgSwDI mice, 7 mg/4 weeks i.p. (micropump), day 5, FIG. 4; listed as RD2D3 (amidated). The protocol:
FIG. 4: The so-called “Morris water maze” is used to measure the spatial memory of animals. The time is measured in seconds that the animal requires to locate a platform hidden closely beneath the water surface in a water tank. This is measured in several experiments per day on several consecutive days. […] The search time is plotted in seconds on five consecutive days. The learning of animals treated with RD2D3 (amidated) was significant.

In assay [5] the target is T1, amyloid beta fibrils (Aß1-42) (Homo sapiens, UniProt P05067).
T1 construct: 1 mg lyophilized Aß1-42 and N-terminal biotinylated Aß1-42; biotin (only on part of the peptide molecules)
T1 sequence (P05067 672-713): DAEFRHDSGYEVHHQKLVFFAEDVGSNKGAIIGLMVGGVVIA
Nature of the assay: SPR binding kinetics, amyloid beta fibrils. The settings on record: heterogeneous binding model, FIG. 8. The protocol: (§1) 1 mg lyophilized Aß1-42 and N-terminal biotinylated Aß1-42 were each dissolved in 1 ml 100% hexafluoroisopropanol (HFIP) and dissolved overnight at room temperature. For the oligomer and fibril preparation, non-biotinylated Aß was used with N-terminal biotinylated Aß at a ratio of 1:10 and the HFIP was evaporated (Concentrator 5301 from Eppendorf). The resultant Aß film, at a final concentration of 80 μM, was placed in sodium phosphate buffer (10 mM, pH 7.4) and incubated (RT, 600 rpm). The incubation time was 3 h for the oligomer preparation, and 24 h for the fibril preparation. 100% N-terminal biotinylated Aß1-42 without incubation was used for the preparation of monomers.
The density gradient centrifugation was carried out subsequent to the Aß preparation to purify the respective Aß species according to the size of the same. An iodixanol gradient in 10 mM sodium phosphate buffer, pH 7.4 with rising concentrations from 50% to 5% v/v iodixanol was used for this purpose. 100 μl of the Aß sample was applied and separated by way of ultracentrifugation (3 h, 4° C., 259000 g). […]
(§2) Binding kinetics were likewise measured by way of SPR spectroscopy using a T200 device from Biacore (GE Healthcare). […] The binding curves were evaluated by way of kinetic fit models (heterogeneous binding model) using the Biacore T200 evaluation software (version 2.0). […]

Assay [6] concerns the target T2, amyloid beta oligomers (Aß1-42) (Homo sapiens, UniProt P05067).
T2 construct: 1 mg lyophilized Aß1-42 and N-terminal biotinylated Aß1-42; biotin (only on part of the peptide molecules)
Nature of the assay: SPR binding kinetics, amyloid beta oligomer. Here is the method: as §1
The density gradient centrifugation was carried out subsequent to the Aß preparation to purify the respective Aß species according to the size of the same. An iodixanol gradient in 10 mM sodium phosphate buffer, pH 7.4 with rising concentrations from 50% to 5% v/v iodixanol was used for this purpose. 100 μl of the Aß sample was applied and separated by way of ultracentrifugation (3 h, 4° C., 259000 g). Subsequently, the gradient was fractionated into 14 fractions, 140 μl each. Monomeric Aß are present in the first two top fractions, Aß oligomers in fractions 4 to 6, and Aß fibrils in fractions […].
Immobilization for Surface Plasmon Resonance (SPR) Spectroscopy A T200 from Biacore (GE Healthcare) was used for SPR spectroscopy. The Aß species purified by way of density gradient centrifugation were directly immobilized on a sensor chip (Series S Sensor Chips SA) according to the manufacturer's instructions by way of biotin-streptavidin coupling. 1×PBS was used as the running buffer. Loading took place at 25° C. and a flow rate of 5 μl/min. […]
as §2

T2 sequence (P05067 672-713): as above

For “D3D3 amidated: dimer D3D3 (SEQ ID NO: 6), amidated at position 24 at the free C-terminus ([dR][dP][dR][dT][dR][dL][dH][dT][dH][dR][dN][dR][dR][dP][dR][dT][dR][dL][dH][dT][dH][dR][dN][dR]-NH2; N-terminus assumed; SMILES CC(C)C[C@@H](NC(=O)[C@@H](CCCNC(=N)N)NC(=O)[C@H](NC(=O)[C@@H](CCCNC(=N)N)NC(=O)[C@H]1CCCN1C(=O)[C@H](N)CCCNC(=N)N)[C@H](C)O)C(=O)N[C@H](Cc1c[nH]cn1)C(=O)N[C@@H](C(=O)N[C@H](Cc1c[nH]cn1)C(=O)N[C@H](CCCNC(=N)N)C(=O)N[C@H](CC(N)=O)C(=O)N[C@H](CCCNC(=N)N)C(=O)N[C@H](CCCNC(=N)N)C(=O)N1CCC[C@@H]1C(=O)N[C@H](CCCNC(=N)N)C(=O)N[C@@H](C(=O)N[C@H](CCCNC(=N)N)C(=O)N[C@H](CC(C)C)C(=O)N[C@H](Cc1c[nH]cn1)C(=O)N[C@@H](C(=O)N[C@H](Cc1c[nH]cn1)C(=O)N[C@H](CCCNC(=N)N)C(=O)N[C@H](CC(N)=O)C(=O)N[C@H](CCCNC(=N)N)C(N)=O)[C@H](C)O)[C@H](C)O)[C@H](C)O)”, the Object recognition result is on record as “significant” in assay [1] (1 mg/4 weeks i.p. (micropump), FIG. 1); “considerably improves cognition” in assay [1] (1 mg/4 weeks i.p. (micropump), FIG. 1, listed as D3D3); “spend much more time with the new object” in assay [1] (1 mg/4 weeks i.p. (micropump), FIG. 1, listed as D3D3 (amidated)). Further, the SHIRPA entry in assay [2] is recorded as “showed no significant worsening of the SHIRPA value; also recorded: acts more efficiently than the simple peptide D3 (amidated)”. For the same substance, the Rotarod result is given as “able to stop the progression of the phenotype” in assay [3] (FIG. 2, listed as D3D3) and “exhibited no worsening of the neuromotor symptoms” in assay [3] (FIG. 2, listed as D3D3 (amidated)).
As to “RD2D3 amidated: dimer RD2D3 (SEQ ID NO: 4), amidated at position 24 at the free C-terminus ([dP][dT][dL][dH][dT][dH][dN][dR][dR][dR][dR][dR][dR][dP][dR][dT][dR][dL][dH][dT][dH][dR][dN][dR]-NH2; N-terminus assumed; SMILES CC(C)C[C@@H](NC(=O)[C@@H](CCCNC(=N)N)NC(=O)[C@H](NC(=O)[C@@H](CCCNC(=N)N)NC(=O)[C@H]1CCCN1C(=O)[C@@H](CCCNC(=N)N)NC(=O)[C@@H](CCCNC(=N)N)NC(=O)[C@@H](CCCNC(=N)N)NC(=O)[C@@H](CCCNC(=N)N)NC(=O)[C@@H](CCCNC(=N)N)NC(=O)[C@@H](CCCNC(=N)N)NC(=O)[C@@H](CC(N)=O)NC(=O)[C@@H](Cc1c[nH]cn1)NC(=O)[C@H](NC(=O)[C@@H](Cc1c[nH]cn1)NC(=O)[C@@H](CC(C)C)NC(=O)[C@H](NC(=O)[C@H]1CCCN1)[C@H](C)O)[C@H](C)O)[C@H](C)O)C(=O)N[C@H](Cc1c[nH]cn1)C(=O)N[C@@H](C(=O)N[C@H](Cc1c[nH]cn1)C(=O)N[C@H](CCCNC(=N)N)C(=O)N[C@H](CC(N)=O)C(=O)N[C@H](CCCNC(=N)N)C(N)=O)[C@H](C)O)”, the Water maze entry in assay [4] is “able to improve the cognition of SweDI mice”. The Object recognition result is “significant” in assay [1] (7 mg/4 weeks i.p. (micropump), FIG. 5) and “spend much more time with the new object; also recorded: able to improve the cognition of SweDI mice” in assay [1] (7 mg/4 weeks i.p. (micropump), FIG. 5, listed as RD2D3 (amidated)).
With RKRTRLHTHRNR [cD3(P2K)], the “Binding strength (KD, kinetics) to amyloid beta fibrils” value in assay [5] is “sub-pM binding range”.
Take “cD3z: cD3 zero, cyclized D3 without any further amino acid attachments (cyclo([dR][dP][dR][dT][dR][dL][dH][dT][dH][dR][dN][dR]); SMILES CC(C)C[C@H]1NC(=O)[C@@H](CCCNC(=N)N)NC(=O)[C@@H]([C@H](C)O)NC(=O)[C@@H](CCCNC(=N)N)NC(=O)[C@H]2CCCN2C(=O)[C@@H](CCCNC(=N)N)NC(=O)[C@@H](CCCNC(=N)N)NC(=O)[C@@H](CC(N)=O)NC(=O)[C@@H](CCCNC(=N)N)NC(=O)[C@@H](Cc2c[nH]cn2)NC(=O)[C@@H]([C@H](C)O)NC(=O)[C@@H](Cc2c[nH]cn2)NC1=O)”: the “Rmax, contribution of KD2 (high-affinity site) to RU total loading” value in assay [6] (oligomers, FIG. 7, high-affinity site) stood at 21%. Moreover, the “Rmax, contribution of the low-affinity site to RU total loading” value in assay [6] (oligomers, FIG. 7, low-affinity site (white bar)) came to 79%.
For the substance “rprtrlhthrnr ([dR][dP][dR][dT][dR][dL][dH][dT][dH][dR][dN][dR]) [linear D3, known D-enantiomeric peptide D3, linear, unmodified C-terminal carboxyl group, reference compound]”, in assay [6] (heterogeneous binding model, FIG. 7), the “Binding strength (KD, kinetics) to amyloid beta oligomer” value is on record as “binds only a low-affinity site, but not a high-affinity site”.
